The source of these data is patent US9957295B2, “Peptides inhibiting cold-inducible RNA binding protein activity” (The Feinstein Institute for Medical Research, priority 2013, dated 2018).

The subject of assay [1] is LPS-induced TNF-α production in differentiated THP-1 cells. The experiment in a line: Peptide inhibition of LPS-induced TNF-α production in differentiated THP-1 cells (ELISA). The format is cell-based, human. How it is done:
Human monocytic THP-1 cells (American Type Culture Collection, Manassas, Va.), were seeded in suspension into T75 tissue culture flask at a density of 1.5×10^6 cells and cultured with RPMI-1640 medium supplemented with 10% heat-inactivated fetal bovine serum, 1% penicillin/streptomycin, 2 mM glutamine and additional 0.05 mM β-mercaptoethanol at 37° C. in a humidified incubator with 5% CO2.
Cells were plated at a density of 5×10^4 per well in 96-well tissue culture plate and incubated with phorbol 12-myristate 13-acetate (20 ng/ml) for 48 h to become differentiated macrophages-like cells before experiment. Cells were used between passages 5 and 12. Cells were pretreated with indicated concentrations of CIRP-derived peptides C22 (SEQ ID NO: 13) or C23 (SEQ ID NO: 12) for 1 h, and then incubated in the absence or presence rmCIRP or LPS (from E. coli O111:B4, Sigma St. Louis, Mo.) with Opti-MEM-medium for 6 h. The cell-free supernatants were assayed for TNF-α by ELISA.
Supernatants were measured for TNF-α levels using a commercially available enzyme-linked immunosorbent assay (ELISA) kits-human TNF-α set (BioSource International, Camarillo, Calif.) according to the manufacturer's instruction.
The CIRP-derived peptides were also found to modulate LPS-induced TNF-α release in differentiated THP-1 cells. […] The doses of C22 or C23 at 2 ng/ml, equivalent to 1.3 pmol/ml and LPS at 10 ng/ml, equivalent to 0.67 pmol/ml, peptides and LPS molar ratios at 2:1 were used to treat cells.
On the technique in general: An ELISA detects its analyte on a solid surface through an enzyme-linked reagent.

The target in another assay is T1, rhMD2 (Homo sapiens, UniProt Q9Y6Y9).
T1 construct: Glu17-Asn160); 10-His (C); purchased R&D Systems; host or cells: E. coli
T1 sequence (Q9Y6Y9 17-160): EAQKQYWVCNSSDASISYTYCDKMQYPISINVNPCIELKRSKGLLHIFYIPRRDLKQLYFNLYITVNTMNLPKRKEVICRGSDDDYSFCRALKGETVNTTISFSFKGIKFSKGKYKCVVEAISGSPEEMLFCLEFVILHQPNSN
The assay can be described thus: SPR binding to immobilized rhMD2. The settings on record: oligopeptides passed over immobilized rhMD2. How it is done: Analysis of protein-protein and peptide-protein interactions were conducted using the BIAcore T200 instrument (GE Healthcare). Binding reactions were performed in 1×PBS buffer containing 0.01% Tween-20 (pH 7.4). The CM5 dextran chip (flow cell-2) was first activated by injection with 89 μl of 0.1 M […] and 0.1 M N-hydroxysuccinimide. An aliquot of 200 μl of 5 μg/ml of the ligand diluted in 10 mM sodium acetate (pH 4.5) was injected into flow cell-2 of the CM5 chip for immobilization. Next, 135 μl of 1 M ethanolamine (pH 8.2) was then injected to block the remaining active sites. The flow cell-1 without coating with the ligand was used as a control to evaluate nonspecific binding. The binding analyses were performed at flow rate of 30 μl/min at 25° C. To evaluate the binding, the analyte (ranging from 62.5 nM to 1.0 μM for kinetics analysis or 0.5 μM for yes/no binding analysis) was injected into flow cell-1 and -2 and the association of analyte and ligand was recorded respectively by surface plasmon resonance. The signal from the blank channel (flow cell-1) was subtracted from the channel (flow-cell 2) coated with the ligand. Data were analyzed by the BIAcore T200 Evaluation Software. For all samples, a blank injection with buffer alone was subtracted from the resulting reaction surface data. Data were globally fitted to the Lagmuir model for a 1:1 binding.
Surface plasmon resonance (SPR) analysis was utilized to determine the physical interaction and binding affinity between rhCIRP and pattern-recognition receptors and MD2. […] The sensorgrams show association and dissociation of analyte at the indicated concentration passed over to the immobilized ligand on the sensor chip, indicated as analyte/ligand on top of each diagram. […] The region of CIRP that binds to MD2 was determined via the synthesis of 32 oligopeptides (15-mer) covering the entire human CIRP sequence. The oligopeptides were passed over immobilized rhMD2 on the BIAcore instrument, followed by subsequent performance of a series of SPR analyses. Three oligopeptides with high binding affinity were indicated. […] Three oligopeptides, aa 101-115, 106-120 (C22), and 111-125 (C23) bound to rhMD2 with high affinity (FIG. 14 and FIG. 19).
Background: SPR reads the build-up and loss of mass on a sensor chip optically.

The test system of assay [2] is MLVEC stimulated with rmCIRP. The experiment in a line: rmCIRP-stimulated mouse lung vascular endothelial cells (MLVEC). The class given is cell-based. The settings on record: C23 200 ng/ml. How it is done: MLVEC were treated with rmCIRP in the presence of C23 or non-specific oligopeptide P5 (negative control) for 4 hours. Cells were harvested, lysed and the cell lysate analyzed by SDS-PAGE and Western blotting (immunodetection). Referring to FIG. 23A, ICAM-1 expression is abrogated in the presence of 200 ng/ml of the oligopeptide C23.
Similarly, the release of IL-1beta by MLVEC stimulated by rmCIRP was blocked (as determined by ELISA) when 200 ng/ml of the oligopeptide C23 was added to the media, as shown in FIG. 23B. (For FIGS. 23A and 23B: Mean+/−SD, n=3, *P<0.05 vs. groups without C23.)

A further assay deals with mice subjected to CLP. The experiment in a line: Mouse CLP sepsis, markers 24 hours post-CLP. The format is in vivo. The settings on record: 8 mg/kg 2 hours after CLP. How it is done: Mice subjected to CLP were treated 2 hours later with the oligopeptide C23 (8 mg/kg) or saline.
In FIGS. 23A through 23C: Mean+/−SD; n=4-8/group; *P<0.05 vs. sham, #P<0.05 vs. vehicle, one-way ANOVA. mRNA amounts are measured by qPCR; protein levels are measured by ELISA.

The next assay deals with septic mice (CLP). The experiment in a line: Mouse CLP severe sepsis survival study. The format is in vivo. How it is done: Mice were subjected to CLP and treated immediately after operation with the antibiotic imipenem ([…] BW) and resuscitative fluid. At 2 hours after CLP, mice were administered C23 (8 mg/kg BW) or an equivalent volume of normal saline (vehicle) via the internal jugular vein. Survival was then assessed every 12 hours.

In the next assay the test system is THP-1 cells. The experiment in a line: TNF-α release from differentiated THP-1 cells stimulated with recombinant proteins. The format is cell-based, human. To be noted: 0.3 μg/ml each protein, 8 h, ELISA. The method, then:
As with the murine model, the stimulation of TNF-α, release by rCIRP in a human model was studied. […] These experiments were conducted by incubating differentiated human THP-1 cells with rhCIRP or rmCIRP at the indicated concentrations for 4 h. *P<0.05 vs. no CIRP. Similarly, human PBMC were incubated with the indicated concentrations of rhCIRP for 8 h. *P<0.05 vs. no rhCIRP. Thus, stimulation of cytokine release by CIRP was not attributable to LPS contamination. Furthermore, CIRP-induced cytokine activation was conserved between rodents and humans.
rmCIRP induced TNF-α and HMGB1 release in macrophages (FIGS. 10a, b and c). It was reported that HMGB1 can also stimulate TNF-α release (Andersson, U., et al. High mobility group 1 protein (HMG-1) stimulates proinflammatory cytokine synthesis in human monocytes. J. Exp. Med. 192, 565-570 (2000)). The relationship between CIRP and HMGB1 on stimulating TNF-α release was analyzed by applying respective neutralizing antibodies. […] After 4 h, TNF-α levels in conditioned medium (CM) were assayed by ELISA. Data are mean±s.e.m. from three independent experiments. *P<0.05 vs. rmCIRP+ control IgG. In FIG. 16D, RAW 264.7 cells were pre-incubated with rabbit control IgG or anti-CIRP antibodies at indicated dilutions of 1 mg/ml for 20 min before adding 1.0 μg/ml rmCIRP. After 4 h, TNF-α levels in CM were assayed by ELISA. Data are mean±s.e.m. from three independent experiments. *P<0.05 vs. rmCIRP+ control IgG. THP-1 cells were incubated with 4 μg/ml of anti-CIRP antibodies, anti-HMGB1 antibodies, or non-immunized control IgG for 1 h prior to adding rmCIRP (0.3 μg/ml), rmHMGB1 (0.3 μg/ml), or rmCIRP/rmHMGB1 (0.3 μg/ml, 0.3 μg/ml) for 8 h. *P<0.05 vs. rmCIRP; #P<0.05 vs. rmHMGB1. […] Furthermore, rmCIRP, rmHMGB1, and rmCIRP plus rmHMGB1 induced TNF-α levels of 0.8, 0.6, and 1.6 ng/ml, respectively. […] TNF-α levels in all collected CM were assayed by ELISA. Data are mean±s.e.m. from three or four independent experiments.
Murine macrophage-like RAW 264.7 cells and human monocyte THP-1 cells were obtained from ATCC (Manassas, Va.). […]

A further assay deals with TLR4 (Homo sapiens, UniProt O00206). To be noted: literature; read-out: KD, binding to TLR4; cited from earlier work.
Sequence of TLR4 (O00206 24-631 limits assumed, species assumed): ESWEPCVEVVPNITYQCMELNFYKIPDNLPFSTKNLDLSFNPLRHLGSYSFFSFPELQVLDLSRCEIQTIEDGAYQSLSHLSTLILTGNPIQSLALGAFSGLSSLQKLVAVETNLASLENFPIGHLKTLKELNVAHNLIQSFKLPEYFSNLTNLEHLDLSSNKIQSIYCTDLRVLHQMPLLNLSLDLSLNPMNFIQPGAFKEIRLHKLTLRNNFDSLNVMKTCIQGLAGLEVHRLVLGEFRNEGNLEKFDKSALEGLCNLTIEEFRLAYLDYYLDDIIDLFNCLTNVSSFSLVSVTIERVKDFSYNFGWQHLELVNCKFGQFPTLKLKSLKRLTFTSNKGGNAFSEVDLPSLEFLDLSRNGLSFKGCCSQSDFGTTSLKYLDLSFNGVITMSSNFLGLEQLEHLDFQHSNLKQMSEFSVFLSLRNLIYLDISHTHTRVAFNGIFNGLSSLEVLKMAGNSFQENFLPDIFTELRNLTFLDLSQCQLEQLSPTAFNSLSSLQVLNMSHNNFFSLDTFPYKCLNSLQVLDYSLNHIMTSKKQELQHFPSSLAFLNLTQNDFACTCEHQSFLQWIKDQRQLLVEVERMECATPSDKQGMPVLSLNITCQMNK

“Also recorded” adds a separate entry of the source.

For the molecule “GGRGRGRGFSRGGGD (fragment of CIRP) [C22, 15-mer oligopeptide derived from human CIRP]”, the “effect on LPS-induced TNF-α release in THP-1 cells (in words)” value (“effect on LPS-induced TNF-α release” for short) in assay [1] is reported as “inhibit”. Further, the “binding affinity of 15-mer oligopeptides to rhMD2 (in words)” value (“binding affinity of 15-mer oligopeptides” below) with rhMD2 is “high affinity”.
“GRGFSRGGGDRGYGG (fragment of CIRP) [C23, 15-mer oligopeptide derived from human CIRP]”: the “ICAM-1 expression in MLVEC” value in assay [2] (4 hours, Western blot) is on record as “abrogated”. Besides, in assay [2] (ELISA), the “release of IL-1beta by MLVEC” value is given as “blocked”. The “serum levels of TNF-α and IL-6” value in the assay on mice subjected to CLP is given as “lower”. Further, in the assay with mice subjected to CLP (24 hours post-CLP), the “expression of E-selectin, ICAM-1, TNF-α and IL-1β in the lungs” value is “significant decrease”. Further, in assay [1], the “effect on LPS-induced TNF-α release” value is recorded as “inhibit”. The “survival (Kaplan-Meier, in words)” value in the assay on septic mice (CLP) (8 mg/kg BW 2 hours after CLP, all vehicle mice died within 48 hours) is reported as “some of C23-treated mice lived longer”. Moreover, in the assay with septic mice (CLP) (8 mg/kg BW via internal jugular vein 2 hours after CLP, with imipenem), the average survival time came out at 44.2 h. For the same molecule, the “binding affinity of 15-mer oligopeptides” value in the assay with rhMD2 was “high affinity; also recorded: highest affinity”.
Regarding “RGFFRGGRGRGRGFS (fragment of CIRP) [C21, 15-mer oligopeptide derived from human CIRP]”, the “effect on LPS-induced TNF-α release” value in assay [1] is “does not suppress”. The “binding affinity of 15-mer oligopeptides” value in the assay with rhMD2 was “high affinity”.

B1: rmHMGB1: recombinant HMGB1 produced as in Yang et al. 2004 (protein, UniProt P63158 1-215, looked up)
High mobility group protein B1: MGKGDPKKPRGKMSSYAFFVQTCREEHKKKHPDASVNFSEFSKKCSERWKTMSAKEKGKFEDMAKADKARYEREMKTYIPPKGETKKKFKDPNAPKRPPSAFFLFCSEYRPKIKGEHPGLSIGDVAKKLGEMWNNTAADDKQPYEKKAAKLKEKYEKDIAAYRAKGKPDAAKKGVVKAEKSKKKKEEEDDEEDEEDEEEEEEEEDEDEEEDDDDE
With B1, the “induced TNF-α levels” value in the assay with THP-1 cells stood at 0.6 ng/mL.

B2: rhMD2: recombinant human MD2 (Glu17-Asn160) with 10-His tag, expressed from E. coli, R&D Systems (protein)
chain: EAQKQYWVCNSSDASISYTYCDKMQYPISINVNPCIELKRSKGLLHIFYIPRRDLKQLYFNLYITVNTMNLPKRKEVICRGSDDDYSFCRALKGETVNTTISFSFKGIKFSKGKYKCVVEAISGSPEEMLFCLEFVILHQPNSNHHHHHHHHHH
On to B2, for which the Kd with TLR4 is 62.9 nM.

Usually Kd stands for the constant that tells how readily two partners part at equilibrium.
